The values that follow come from article PMC6668022 (Pharmaceutical research, 2019).

For orientation: EC50 means the concentration needed to bring the measured effect to its halfway point. As a reminder, the IC50 is the midpoint of a concentration-inhibition curve.

SMILES strings stand for the structures. “And” between values parts separate entries of the source, which are not always exact repeats. Identical values can stand only once. “Also recorded” adds a separate entry of the source. Like-named read-outs stand apart in the source and are kept apart here.

The nature of data set [1]: in vitro. Conditions: human.
In data set [2] the test system is EBOV. The data set is described as follows: microbe, parasite or virus in culture. The class given is cell-based, Ebola virus.
The subject of data set [3] is HeLa cells. Conditions: read-out: HeLa CC50; n=2.
In data set [4] the test system is EBOV. Conditions: in vivo, 30 mg/kg/day; cited from earlier work.
Data set [5] deals with VP35-nucleoprotein interface. Conditions: cited from earlier work.
The mark [6] stands for this setting: Zaire ebolavirus, HeLa, 24 h, read-out: EC50 Activity against EBOV, n=4.
Setting [7] is: read-out: EC50 Activity against EBOV, n=4.

`CC(=O)OCc1ccccc1` [Benzyl acetate] yielded a CC50 in data set [1] of over 50 µM. Also, the values for the EC50 in data set [2] (setting [6]) and in data set [2] (setting [7]) were 10 µM and 10.7 ± 5 µM, respectively.
Regarding `C=CCc1ccc(O)c(OC)c1` [Eugenol], the CC50 in data set [1] is over 50 µM. Further, in data set [2] (setting [6]), the EC50 was determined as 1.3 ± 0.5 µM.
Regarding `CC(C)[C@@H]1CC[C@@H](C)C[C@H]1O` [L- menthol], in data set [2] (n=4), the “EC50 Activity against EBOV” value was “no appreciable activity; also recorded: inactive”.
For `NC(=O)c1cccnc1` [Nicotinamide, reference compound], in data set [2] (n=4), the “EC50 Activity against EBOV” value was “inactive”.
With `O=C(O)c1cccnc1` [Nicotinic acid, reference compound], the “EC50 Activity against EBOV” value in data set [2] is “inactive”.
In data set [1], `COc1ccc(C=O)cc1` [P-anisaldehyde] gave a CC50 of over 50 µM. The EC50 worked out at 2.8 µM in data set [2] (setting [6]) and 2.9 ± 0.6 µM in data set [2] (setting [7]).
`CC(=O)OCCc1ccccc1` [Phenethyl acetate]: the CC50 in data set [3] is over 50 µM. In data set [2] (setting [7]), the EC50 is 10 µM and 10.4 µM.
Regarding `CCN(CC)CCOc1ccc2c(c1)C(=O)c1cc(OCCN(CC)CC)ccc1-2` [tilorone], the “efficacy in a mouse model of EBOV infection” value in data set [4] was 100%.
As for `Cc1ccc(C(=O)c2cc(O)c(O)c([N+](=O)[O-])c2)cc1` [tolcapone], in data set [5], the IC50 is 2 µM.
